≈ marks a conversion by molar mass, not a printed value.

The values below come from PubChem BioAssay AID1996.

The conditions of this data set: buffer; pH 7.4; 200.0 µM.
As to `Cc1onc(-c2c(Cl)cccc2Cl)c1C(=O)c1ccc(F)cc1`, the kinetic solubility is less than 0.7 µg/mL.
Then `CC(C)c1ccc(S(=O)(=O)NCc2ccc3c(c2)OCO3)cc1`, with 1.9 µg/mL (≈ 5.7 µM); and `CCCCC(=O)Nc1cc([N+](=O)[O-])ccc1F`, with 31.8 µg/mL (≈ 132 µM).
On to `O=C(NC1CCCCC1)c1ccc2[nH]c(=O)c(=O)[nH]c2c1`, for which the solubility (kinetic) was more than 43.1 µg/mL.
Consider `N#CC1(NC(=O)COC(=O)C2=COCCO2)CCCCC1`, for which the kinetic solubility was more than 44.1 µg/mL.
Take `Cc1c(NCc2ccncc2)cccc1C(=O)O`: the solubility (kinetic) was more than 36.3 µg/mL.
Then `COc1ccc(C(=O)NCCNC(=O)c2ccc(C)nc2)cc1`, with more than 47 µg/mL; and `COc1cc(C(F)(F)F)ccc1C(=O)NCCc1ccco1`, with 42.9 µg/mL (≈ 137 µM).
For the compound `COc1ccccc1S(=O)(=O)N1CCNC(=O)C1`, the kinetic solubility was more than 40.5 µg/mL.
`O=C(CSc1ccc(-c2ccc(F)cc2)nn1)NCC1CCCO1` (configuration not stated) yielded a kinetic solubility of more than 52.1 µg/mL.
As for `C#CCn1cc(Cl)cc(C(=O)Nc2ccccc2)c1=O`, the solubility (kinetic) was 2.1 µg/mL (≈ 7.32 µM).
To `O=C(Cc1ccc(F)cc1)Nc1ccc(Cl)cn1` belongs 8.1 µg/mL (≈ 30.6 µM); to `Cn1ccnc1Sc1ccccc1[N+](=O)[O-]`, 24.1 µg/mL (≈ 102 µM).
As for `O=C(NCC(c1ccco1)N1CCOCC1)c1ccc(Cl)cc1` (configuration not stated), the kinetic solubility is more than 50.2 µg/mL.
`COc1ccc(-c2nc3c4ccccc4ccn3c2CN2CCCCC2)cc1` gave a solubility (kinetic) of 1.7 µg/mL (≈ 4.58 µM).
The compound `Cc1ccc(C)c(NC(=O)CCOc2ccccc2)c1` yielded a kinetic solubility of 3.7 µg/mL (≈ 13.7 µM).
`Cc1ccc(Cl)cc1NC(=O)C1COc2ccccc2O1` (configuration not stated) displayed a solubility (kinetic) of less than 0.7 µg/mL.
To `S=C(NCCNC(=S)Nc1ccccc1)Nc1ccccc1` belongs 9.4 µg/mL (≈ 28.4 µM).
Then `CS(=O)(=O)N(CC(=O)N1CCCC1)c1ccccc1Br`, with more than 54.2 µg/mL; and `Cc1ccc(-c2csc3nc[nH]c(=O)c23)cc1`, with 19.5 µg/mL (≈ 80.5 µM).
Then `CCOc1ccc(NS(=O)(=O)c2cc(NC(=O)C3CC3)ccc2C)cc1Br`, with 3 µg/mL (≈ 6.62 µM); and `CCOC(=O)c1oc2ccccc2c1NC(=O)CCl`, with 10.8 µg/mL (≈ 38.3 µM); and `O=C1c2ccccc2C(=O)N1c1cccc2ccccc12`, with 13.7 µg/mL (≈ 50.1 µM).
As to `O=C(Nc1ccccc1N1CCCCC1)c1cccc([N+](=O)[O-])c1`, the kinetic solubility was 0.7 µg/mL (≈ 2.15 µM).
Take `S=C(Nc1ccc(Oc2ccccc2)cc1)Nc1cccnc1`: the kinetic solubility worked out at 30 µg/mL (≈ 93.3 µM).
`Cc1ccc(NC(=O)CN(C)C(=O)c2ccc(Cl)nc2)cc1` came in with a kinetic solubility of more than 47.7 µg/mL.
Then `CSc1sc(C(=O)N(C)C)c2c1S(=O)(=O)N(C)c1ccccc1-2`, with more than 55.3 µg/mL; and `CCOC(=O)N1CCN(Cc2nc3cc([N+](=O)[O-])ccc3n2C)CC1`, with 50.7 µg/mL (≈ 146 µM); and `COc1cc(OC)cc(C(=O)OCC(=O)Nc2cccc(S(=O)(=O)NC3=NCCCCC3)c2)c1`, with 33.3 µg/mL (≈ 68 µM).
On to `O=C(COC(=O)C1CC(=O)N(Cc2ccco2)C1)Nc1ccc(F)cc1F` (configuration not stated), for which the kinetic solubility was more than 56.7 µg/mL.
Consider `CNC(=S)Nc1ccc(N2CCCC2)c(S(=O)(=O)Nc2ccc(OC)cc2)c1`, for which the kinetic solubility came to 34.6 µg/mL (≈ 82.3 µM).
`CCOC(=O)C(C)Oc1c(C(=O)OC)sc2ncccc12` (configuration not stated) returned a kinetic solubility of 38.2 µg/mL (≈ 123 µM).
Consider `CC1Cc2ccccc2N1C(=O)CSc1ncccn1` (configuration not stated), for which the solubility (kinetic) is more than 42.8 µg/mL.
Then `COc1ccc(C(=O)N/C(=C\c2ccc(SC)cc2)C(=O)NCCCn2ccnc2)cc1OC`, with 12.3 µg/mL (≈ 25.6 µM).
The compound `COc1ccccc1CNC(=O)C1(C)Oc2cccnc2NC1=O` (configuration not stated) came in with a solubility (kinetic) of more than 49.1 µg/mL.
In the case of `Cc1ccc(NC(=O)c2cc3ccccc3o2)cc1Cl`, the kinetic solubility is less than 0.6 µg/mL.
Then `O=C(CCS(=O)(=O)c1ccccc1)Nc1nncs1`, with more than 44.6 µg/mL.
On to `NC(=O)C1CCN(C(=O)/C=C/c2ccccc2[N+](=O)[O-])CC1`, for which the solubility (kinetic) is more than 45.5 µg/mL.
In turn, `Brc1cnc2nc(SCc3nc4ccccc4[nH]3)[nH]c2c1` displayed a solubility (kinetic) of 1.2 µg/mL (≈ 3.33 µM).
Compound `Cn1c(/C=C/c2ccccc2[N+](=O)[O-])nc2ccccc2c1=O` displayed a solubility (kinetic) of 0.6 µg/mL (≈ 1.95 µM).
In the case of `Cc1ccc(S(=O)(=O)CCC(=O)N2CCN(c3ccccc3O)CC2)cc1`, the solubility (kinetic) worked out at 35.9 µg/mL (≈ 92.4 µM).
As to `Cc1ccc2cc(S(=O)(=O)NCCCN3CCOCC3)ccc2c1`, the solubility (kinetic) was more than 52.3 µg/mL.
For `N#Cc1ccc(OCC(=O)Nc2ccc(S(=O)(=O)N3CCOCC3)cc2)cc1`, the solubility (kinetic) is 5.5 µg/mL (≈ 13.7 µM).
To `CCNC(=S)Nc1ccc2c(c1)oc1ccccc12` belongs 1.7 µg/mL (≈ 6.29 µM); to `COc1ccc(S(=O)(=O)N2CCN(C(=O)c3cc4c(s3)CCC4)CC2)cc1`, 7.7 µg/mL (≈ 18.9 µM).
Then `COC1C(C)=C(C)C(=O)N1Cc1ccccc1` (configuration not stated), with 33.9 µg/mL (≈ 147 µM).
Take `COc1ccc(C(=O)NCCN2CCCC2)cc1.Cl`: the solubility (kinetic) is more than 42.7 µg/mL.
Then `COCCNC(=O)Cn1cc(C(=O)c2ccccc2F)c2ccccc21`, with 17.9 µg/mL (≈ 50.5 µM); and `O=C(OCCC1Oc2cccnc2NC1=O)c1ccc(Cl)cc1` (configuration not stated), with 4 µg/mL (≈ 12 µM).
The compound `CC(C)CN(C(=O)CCNC(=O)c1ccc(Cl)cc1)C1CCS(=O)(=O)C1` (configuration not stated) yielded a kinetic solubility of more than 60.1 µg/mL.
To `COc1ccc(N2CC(C(=O)NC3=NCCS3)CC2=O)cc1` (configuration not stated) belongs more than 47.9 µg/mL.
Then `O=c1c([N+](=O)[O-])c(O)c2cccc3c2n1CCC3`, with 36.3 µg/mL (≈ 147 µM).

What is called kinetic solubility is the concentration staying in solution when a stock, usually in DMSO, is diluted into the medium.
